According to ChEMBL document CHEMBL5034039, “Discovery of Novel, Orally Bioavailable Pyrimidine Ether-Based Inhibitors of ELOVL1” (J Med Chem, 2021):
Values belong to the compound of their own block, whether it stands above or below them. Activity calls are given as the source filed them. The rule behind the calls is not given here.

Columns and labels:
[1] = biological target: T1, Very long chain fatty acid elongase 1 (Homo sapiens, UniProt Q9BW60); experiment: Inhibition of ELOVL1 in HEK293 cells assessed as reduction of C26:0 lipo phosphatidyl choline synthesis; type: cell-based
T1 sequence (Q9BW60 whole entry): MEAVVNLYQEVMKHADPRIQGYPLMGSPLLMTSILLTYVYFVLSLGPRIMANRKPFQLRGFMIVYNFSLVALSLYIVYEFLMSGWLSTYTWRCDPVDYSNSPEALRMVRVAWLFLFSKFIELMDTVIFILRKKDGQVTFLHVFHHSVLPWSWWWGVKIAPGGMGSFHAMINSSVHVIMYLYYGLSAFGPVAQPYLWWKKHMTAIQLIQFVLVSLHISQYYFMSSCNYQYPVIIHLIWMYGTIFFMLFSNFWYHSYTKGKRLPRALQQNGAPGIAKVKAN

[2] = Lipophilicity, logD of the compound at pH 7.4; type: physicochemical; conditions: buffer
[3] = Intrinsic clearance in rat hepatocytes assessed per million cells; type: ADME, cell-based, Hepatocyte; conditions: read-out: CLH
[4] = biological target: T1, Very long chain fatty acid elongase 1; experiment: Inhibition of ELOVL1 (unknown origin)
[5] = test system: MDR1; experiment: Efflux ratio of permeability in dog MDCK-MDR1 cells; type: ADME, cell-based, Canis lupus familiaris
[6] = Inhibition of ELOVL4 in HEK293 cells by radiometric enzyme assay; type: cell-based, Homo sapiens
[7] = biological target: T2, Very long chain fatty acid elongase 6 (Homo sapiens, UniProt Q9H5J4); experiment: Inhibition of ELOVL6 in HEK293 cells by radiometric enzyme assay; type: cell-based
T2 sequence (Q9H5J4 whole entry): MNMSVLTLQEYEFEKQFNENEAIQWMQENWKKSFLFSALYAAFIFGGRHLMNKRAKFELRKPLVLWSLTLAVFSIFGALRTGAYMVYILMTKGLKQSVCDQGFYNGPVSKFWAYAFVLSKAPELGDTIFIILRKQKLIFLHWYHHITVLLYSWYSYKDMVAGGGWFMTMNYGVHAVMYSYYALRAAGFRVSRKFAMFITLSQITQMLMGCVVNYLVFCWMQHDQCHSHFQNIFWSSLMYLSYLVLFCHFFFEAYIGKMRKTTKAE

[8] = Inhibition of ELOVL7 in HEK293 cells by radiometric enzyme assay; type: cell-based, Homo sapiens
[9] = Clearance in rat at 1 mg/kg, iv; type: ADME, organism-based; conditions: in vivo
[10] = Half life in rat at 1 mg/kg, iv; type: ADME, organism-based; conditions: in vivo
[11] = Oral bioavailability in rat at 3 mg/kg; type: ADME, organism-based; conditions: in vivo
[12] = test system: Mus musculus; experiment: Reduction in C26:0/C16:0 LPC level in ABCD1 knock out mouse blood at 1 to 32 mg/kg, po qd and measured after 1 week; type: functional, organism-based; conditions: dose 1-32 mg/kg, time 1.0 weeks
[13] = Reduction in C26:0/C16:0 LPC level in ABCD1 knock out mouse blood at >=8 mg/kg, po qd and measured after 1 week relative to control; type: functional; parameters: scale not given: the % may be the effect or the level left; conditions: dose mg/kg >=8; time 1 weeks
[14] = Reduction in C26:0 LPC level in wild type mouse blood at 4 mg/kg, po qd and measured after 1 week relative to control; type: functional; parameters: scale not given: the % may be the effect or the level left; conditions: time 1 weeks
[15] = Reduction in C26:0 LPC level in wild type mouse blood at 16 mg/kg, po qd and measured after 1 week relative to control; type: functional; parameters: scale not given: the % may be the effect or the level left; conditions: time 1 weeks
[16] = Reduction in C26:0 LPC level in wild type mouse blood at 32 mg/kg, po qd and measured after 1 week relative to control; type: functional; parameters: scale not given: the % may be the effect or the level left; conditions: time 1 weeks
[17] = Reduction in C26:0/C16:0 LPC level in ABCD1 knock out mouse CNS at 32 mg/kg, po qd and measured after 3 months relative to control; type: functional; parameters: scale not given: the % may be the effect or the level left; conditions: 2190 h
[18] = Reduction in C26:0/C16:0 LPC level in wild type Sprague-Dawley rat blood at 10 mg/kg, po qd measured after 28 days relative to control; type: functional; parameters: scale not given: the % may be the effect or the level left; conditions: time 28 day
[19] = Reduction in C26:0/C16:0 LPC level in wild type Sprague-Dawley rat blood at 50 mg/kg, po qd measured after 28 days relative to control; type: functional; parameters: scale not given: the % may be the effect or the level left; conditions: time 28 day
[20] = test system: Cynomolgus monkey; experiment: Reduction in C26:0/C16:0 LPC level in wild type Cynomolgus monkey blood at 6.5 mg/kg, po qd measured after 14 days relative to control; type: functional, Macaca fascicularis; parameters: scale not given: the % may be the effect or the level left; conditions: time 14 day
[21] = test system: Cynomolgus monkey; experiment: Reduction in C26:0/C16:0 LPC level in wild type Cynomolgus monkey blood at 50 mg/kg, po qd measured after 14 days relative to control; type: functional, Macaca fascicularis; parameters: scale not given: the % may be the effect or the level left; conditions: time 14 day
[22] = biological target: Kappa-type opioid receptor (Homo sapiens) (UniProt P41145); experiment: Inhibition of human kappa opioid receptor at 10 uM relative to control
[23] = biological target: 3',5'-cyclic phosphodiesterase (Homo sapiens) (UniProt O76074+P27815+Q14432+Q13956+P18545+O00408+Q13946+P54750+O76083+P35913+Q08499+Q07343+O43924+P16499+Q13370+P51160+O95263+Q9Y233+Q01064+Q08493+Q14123+O60658+Q9NP56); experiment: Inhibition of human PDE4 at 10 uM relative to control; type: protein assay
[24] = biological target: Voltage-gated inwardly rectifying potassium channel KCNH2 (Homo sapiens, UniProt Q12809); experiment: Inhibition of human ERG
[25] = Ocular toxicity in rat assessed as corneal opacities at 10 to 50 mg/kg/day, po qd measured after 8 weeks by macroscopic analysis; type: organism-based; conditions: in vivo, 1344 h, dose 10-50 mg/kg/day
[26] = Toxicity in Cynomolgus monkey assessed as convulsion at >50 mg/kg/day, po qd measured after 14 days; type: organism-based, Macaca fascicularis; conditions: in vivo, 336 h, time 14 day
[27] = Permeability of compound across apical to basolateral side in MDCK-MDR1 cells; type: ADME, cell-based, Canis lupus familiaris; conditions: dog, read-out: permeability
[28] = biological target: T3, Very long chain fatty acid elongase 6 (Homo sapiens) (UniProt Q9H5J4); experiment: Inhibition of ELOVL6 in HEK293 cells assessed as reduction of C16:0 lipo phosphatidyl choline synthesis at 100 nM in presence of 13C-labeled acetate measured after 48 hrs by mass spectroscopic analysis; type: cell-based
T3 sequence (whole entry): T2 sequence (Q9H5J4 whole entry)

[29] = biological target: T3, Very long chain fatty acid elongase 6 (Homo sapiens); experiment: Inhibition of ELOVL6 in HEK293 cells assessed as reduction of C18:0 lipo phosphatidyl choline synthesis at 100 nM in presence of 13C-labeled acetate measured after 48 hrs by mass spectroscopic analysis; type: cell-based
[30] = biological target: T4, Very long chain fatty acid elongase 1 (Homo sapiens) (UniProt Q9BW60); experiment: Inhibition of ELOVL1 in HEK293 cells assessed as reduction of C24:0 lipo phosphatidyl choline synthesis at 100 nM in presence of 13C-labeled acetate measured after 48 hrs by mass spectroscopic analysis; type: cell-based
T4 sequence (whole entry): T1 sequence (Q9BW60 whole entry)

[31] = biological target: T4, Very long chain fatty acid elongase 1 (Homo sapiens); experiment: Inhibition of ELOVL1 in HEK293 cells assessed as reduction of C26:0 lipo phosphatidyl choline synthesis at 100 nM in presence of 13C-labeled acetate measured after 48 hrs by mass spectroscopic analysis; type: cell-based
[32] = biological target: T4, Very long chain fatty acid elongase 1 (Homo sapiens); experiment: Inhibition of ELOVL1 in HEK293 cells assessed as increase in C20:0 lipo phosphatidyl choline synthesis at 100 nM in presence of 13C-labeled acetate measured after 48 hrs by mass spectroscopic analysis; type: cell-based
[33] = test system: Mus musculus; experiment: Reduction in C26:0/C16:0 LPC level in ABCD1 knock out mouse CNS at 4 to 32 mg/kg, po qd and measured after 1 month; type: functional, organism-based; conditions: dose 4-32 mg/kg, time 1.0 months
[34] = test system: HEK293; experiment: Cytotoxicity against HEK293 cells assessed as reduction in cell viability at 100 nM measured after 48 hrs; type: cell-based; conditions: human, hek293, 48 h, 0.1 µM

Voltage-gated inwardly rectifying potassium channel KCNH2, sequence (Q12809 whole entry): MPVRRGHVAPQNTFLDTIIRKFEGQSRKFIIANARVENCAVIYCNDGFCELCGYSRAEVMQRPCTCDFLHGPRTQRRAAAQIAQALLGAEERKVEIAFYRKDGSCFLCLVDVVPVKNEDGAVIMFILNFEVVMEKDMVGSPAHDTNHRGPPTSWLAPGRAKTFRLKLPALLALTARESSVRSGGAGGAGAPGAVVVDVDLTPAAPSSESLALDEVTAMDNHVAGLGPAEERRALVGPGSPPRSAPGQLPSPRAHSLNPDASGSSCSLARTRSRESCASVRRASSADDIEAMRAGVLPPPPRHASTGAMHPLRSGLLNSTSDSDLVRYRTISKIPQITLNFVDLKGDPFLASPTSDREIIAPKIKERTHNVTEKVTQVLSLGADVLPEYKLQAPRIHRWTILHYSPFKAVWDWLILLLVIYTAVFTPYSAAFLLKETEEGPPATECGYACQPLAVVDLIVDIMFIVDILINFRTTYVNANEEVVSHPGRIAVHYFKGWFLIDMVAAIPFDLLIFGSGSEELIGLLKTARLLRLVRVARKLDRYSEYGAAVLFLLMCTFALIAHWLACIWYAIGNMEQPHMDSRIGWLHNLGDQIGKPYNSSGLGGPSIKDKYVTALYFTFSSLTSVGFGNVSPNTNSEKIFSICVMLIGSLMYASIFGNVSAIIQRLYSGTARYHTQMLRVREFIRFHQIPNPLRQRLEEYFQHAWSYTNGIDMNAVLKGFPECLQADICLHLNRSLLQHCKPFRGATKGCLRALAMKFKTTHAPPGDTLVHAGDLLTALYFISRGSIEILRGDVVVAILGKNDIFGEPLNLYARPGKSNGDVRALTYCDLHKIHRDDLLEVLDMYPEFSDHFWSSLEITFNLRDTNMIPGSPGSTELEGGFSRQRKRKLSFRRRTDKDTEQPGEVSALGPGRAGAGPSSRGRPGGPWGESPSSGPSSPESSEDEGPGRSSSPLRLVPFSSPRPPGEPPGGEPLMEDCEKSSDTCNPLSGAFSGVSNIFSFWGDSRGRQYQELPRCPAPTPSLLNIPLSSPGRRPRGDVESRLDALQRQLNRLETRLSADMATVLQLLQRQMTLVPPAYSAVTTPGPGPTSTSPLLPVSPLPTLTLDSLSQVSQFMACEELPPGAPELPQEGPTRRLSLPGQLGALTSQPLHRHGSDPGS
Kappa-type opioid receptor (Homo sapiens), sequence (P41145 whole entry): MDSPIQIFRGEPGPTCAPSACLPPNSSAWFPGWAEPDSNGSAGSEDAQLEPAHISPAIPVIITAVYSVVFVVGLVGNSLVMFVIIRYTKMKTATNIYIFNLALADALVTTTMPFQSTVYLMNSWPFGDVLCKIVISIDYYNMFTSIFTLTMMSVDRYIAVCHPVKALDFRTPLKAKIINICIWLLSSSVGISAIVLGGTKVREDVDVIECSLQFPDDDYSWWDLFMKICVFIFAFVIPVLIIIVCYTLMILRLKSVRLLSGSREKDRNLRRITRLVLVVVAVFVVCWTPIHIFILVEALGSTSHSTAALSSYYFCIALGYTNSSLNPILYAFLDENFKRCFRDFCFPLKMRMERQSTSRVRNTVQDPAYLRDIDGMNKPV

- IC50 [1]: 0.14 µM
- logD [2]: 2.8
- hepatocyte CLint [3]: 366 µL/min/1e6 cells
SMILES: Cc1ccnn1CCOc1cc(N2CCCCC2)ncn1

- IC50 [1]: 0.015 µM
- logD [2]: 5.7
- hepatocyte CLint [3]: 11 µL/min/1e6 cells
SMILES: c1ccc([C@H]2CN(c3cc(O[C@H]4C[C@@H](c5ccccc5)C4)ncn3)CCO2)cc1

- IC50 [1]: 0.007 µM
- logD [2]: 2.9
- hepatocyte CLint [3]: 194 µL/min/1e6 cells
SMILES: Cc1ccnn1CCCOc1cc(N2CCOC(C(F)(F)F)C2)ncn1 (centres undefined)

- IC50 [1]: 0.009 µM
- logD [2]: 2.8
- hepatocyte CLint [3]: 8 µL/min/1e6 cells
SMILES: c1ccc([C@H]2CN(c3cc(O[C@H]4C[C@@H](c5nnco5)C4)ncn3)CCO2)cc1

- IC50 [1]: 0.44 µM
- IC50 [4]: 0.86 µM
SMILES: Fc1ccc(CCOc2cc(N3CCCCC3)ccn2)cc1

- IC50 [1]: 0.06 µM
- logD [2]: 3.6
- hepatocyte CLint [3]: 327 µL/min/1e6 cells
SMILES: CN(c1cc(OCCc2ccc(F)cc2)ncn1)C1CCOC1 (centres undefined)

- IC50 [1]: 0.0004 µM
- logD [2]: 3.3
- hepatocyte CLint [3]: 20 µL/min/1e6 cells
- efflux ratio [5]: 1
- IC50 [6]: > 50 µM
- IC50 [7]: > 50 µM
- IC50 [8]: > 50 µM
- clearance [9]: 1.2 L/h/kg
- half-life [10]: 3.1 h
- bioavailability [11]: 45%
- inhibition [22]: 54%
- inhibition [23]: 74%
- Papp A→B [27]: 174 nm/s
- inhibition [28]: inactive
- inhibition [29]: inactive
- inhibition [30]: Active
- inhibition [31]: Active
- inhibition [32]: Active
SMILES: c1ccc([C@H]2CN(c3cc(O[C@H]4C[C@@H](n5cccn5)C4)ncn3)CCO2)cc1
- Activity [12]: Active
- Activity [13]: 72%
- Activity [14]: 45%
- Activity [15]: 70%
- Activity [16]: 70%
- Activity [17]: 27%
- Activity [18]: 78%
- Activity [19]: 79%
- Activity [20]: 47%
- Activity [21]: 65%
- IC50 [24]: > 30 µM
- Activity [25]: Toxic
- Activity [26]: Toxic
- Activity [33]: inactive
- Activity [34]: Non-Toxic

- IC50 [4]: > 20 µM
SMILES: Fc1ccc(CCOc2cc(-c3cccnc3)ccn2)cc1

Further lines, the compound ahead of its results:

SMILES: c1cnn([C@H]2C[C@@H](Oc3cc([C@H]4C[C@@H](n5cccn5)C4)ncn3)C2)c1
- IC50 [1]: 0.21 µM
- logD [2]: 2.6
- hepatocyte CLint [3]: 12 µL/min/1e6 cells

SMILES: Fc1cnn([C@H]2C[C@H](c3cc(O[C@H]4C[C@@H](n5cccn5)C4)ncn3)C2)c1
- IC50 [1]: 0.0006 µM
- logD [2]: 3.1
- hepatocyte CLint [3]: 9.2 µL/min/1e6 cells

SMILES: CN(C)c1cc(OCCc2ccc(F)cc2)ncn1
- IC50 [1]: 0.06 µM
- logD [2]: 3.6
- hepatocyte CLint [3]: 539 µL/min/1e6 cells

SMILES: Cc1ccnn1CCCOc1cc(N2CCCCC2)ncn1
- IC50 [1]: 0.007 µM
- logD [2]: 3.2
- hepatocyte CLint [3]: 184 µL/min/1e6 cells

SMILES: Clc1ccn([C@H]2C[C@H](c3cc(O[C@H]4C[C@@H](n5cccn5)C4)ncn3)C2)n1
- IC50 [1]: 0.002 µM
- logD [2]: 3.5
- hepatocyte CLint [3]: 12 µL/min/1e6 cells

SMILES: Fc1ccc(CCOc2cc(N3CCCCC3)ncn2)cc1
- IC50 [1]: 0.08 µM
- hepatocyte CLint [3]: 139 µL/min/1e6 cells
- IC50 [4]: 0.22 µM
